In patent US20120142766A1, “SUBSTITUTED 1,3-DIOXANES AND THEIR USES” (EVOLVA SA, priority 2007, published 2012):

Tests used:
[1] = tested on: KKA^y mice; assay: KKAy mice on high fat diet, 14-day oral gavage BID; format: in vivo, mouse
Protocol: 52 male KKA^y mice are obtained commercially (e.g., from Clea Japan) at an age of 6 weeks and put on a high fat diet upon arrival. Individual mice were housed in IVC Type II cages during both the acclimatization and the experimental phase. Both food (high fat diet) and water are supplied ad libitum.
1 animal per cage. […] Lights on at 06:00 a.m. Temperature: 21-25° C. Relative humidity target range: 55-60%.
Mice were randomized into treatment groups according to their 4-h fasting blood glucose.
4 hours after the last administration, non-fasting conditions.
Gamma irradiated high fat diet is commercially available (e.g., Research Diets, Inc. New Brunswick, N.J. (Product # D12266BI)).
Blood is collected into heparin containing glass capillaries which are subsequently centrifuged in a “Haematokrit 24” centrifuge (Hettich) at 15′200×g for 10 minutes at room temperature to obtain the hematocrit value.
The following serum parameters are determined on a COBAS INTEGRA 800 auto analyzer (Roche Diagnostics, Switzerland) using the reagents and protocols provided by the supplier.
All measurements are made on Day 14 of administration, except for the food intake and body weight measurements that are made on Day 12.

[2] = tested on: arterial thrombosis in a mouse model; assay: Arterial thrombosis mouse model (FeCl3 on femoral artery); format: in vivo
Protocol: The solutions are diluted 3.3-fold in saline and 100 μl/25 g is injected. Thus, the above-mentioned doses of 100 and 300 mg/kg of compound correspond to final doses of 30 and 100 mg/kg.
During the experiments, a soluble salt of the drug is provided (potassium salt of compound C), diluted in saline. Of this formulation, 100 μl/25 g is injected i.v. in the tail vein (dose of 100 mg/kg).
Solutions are injected (100 μl/25 g body weight) i.v. in the tail vein over 2 min to obtain doses of each compound of 30 mg/kg and 100 mg/kg. Aspirin is given the same way at a dose of 200 mg/kg. Clopidogrel is administered by oral gavage at a dose of 20 mg/kg at 6-7 hours prior to the experiment. The animals assigned to each group are matched for body weight. Mice are typically 8-10 weeks old males and are in a 100% Swiss genetic background.
The flow in each image is expressed as a percentage of that at the contralateral side, and data are averaged for all 120 images to determine total flow. The same analysis is performed for 10 min intervals (which gives essentially the same information as the area under the curve). […] Flow before treatment is recorded as 100%, and that in occluded arteries as 0%. At the end of the experiment, blood is collected on 0.01M citrate by heart puncture for determination of blood cell counts. Plasma is prepared by centrifugation and stored at −20° C. for determination of drug levels.
Statistical analysis for differences between two groups is performed by non-parametric Student t-test. Occlusion times >30 min were considered equal to 30 min for statistical analysis. Significance is set at p<0.05.

[3] = biological target: T1, Human Recombinant (E. coli) PPARgamma (Homo sapiens, UniProt P37231); assay: PPAR gamma binding assay ([3H]-rosiglitazone); details: [3H]-rosiglitazone 10 nM; read-out: PPARγ binding IC50
T1 construct: host or cells: E. coli
T1 sequence (P37231 1-505): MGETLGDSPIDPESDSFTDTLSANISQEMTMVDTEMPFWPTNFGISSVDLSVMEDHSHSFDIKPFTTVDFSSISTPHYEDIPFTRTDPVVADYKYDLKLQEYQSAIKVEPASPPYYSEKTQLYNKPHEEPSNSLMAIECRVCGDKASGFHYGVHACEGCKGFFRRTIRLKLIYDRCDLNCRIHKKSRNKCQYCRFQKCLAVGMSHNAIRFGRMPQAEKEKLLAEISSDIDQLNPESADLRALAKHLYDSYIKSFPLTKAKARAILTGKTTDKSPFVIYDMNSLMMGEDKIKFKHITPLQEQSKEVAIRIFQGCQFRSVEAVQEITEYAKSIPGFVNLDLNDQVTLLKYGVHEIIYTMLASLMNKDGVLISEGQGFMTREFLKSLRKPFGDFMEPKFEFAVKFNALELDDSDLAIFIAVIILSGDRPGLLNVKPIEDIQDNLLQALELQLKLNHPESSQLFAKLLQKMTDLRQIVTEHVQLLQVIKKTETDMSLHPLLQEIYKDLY
Protocol: Incubation: 120 min. at 4° C.
The results are expressed as a percent of control specific binding ((measured specific binding/control specific binding)×100) obtained in the presence of the test compounds. The IC50 values (concentration causing a half-maximal inhibition of control specific binding) and Hill coefficients (nil) were determined by non-linear regression analysis of the competition curves generated with mean replicate values using Hill equation curve fitting (Y=D+[(A−D)/(1+(C/C50)nH)], where Y=specific binding, D=minimum specific binding, A=maximum specific binding, C=compound concentration, C50=IC50, and nH=slope factor). This analysis was performed using a software developed at Cerep (Hill software) and validated by comparison with data generated by the commercial software SigmaPlot® 4.0 for Windows® (© 1997 by SPSS Inc.). The inhibition constants (Ki) were calculated using the Cheng Prusoff equation (Ki=IC50/(1+(L/KD)), where L=concentration of radioligand in the assay, and KD=affinity of the radioligand for the receptor).

[4] = biological target: T2, Thromboxane synthase (Homo sapiens, UniProt P24557); assay: Human platelet thromboxane synthase assay; format: biochemical
T2 construct: Human Platelet Thromboxane Synthase Assay; from tissue; host or cells: human platelets
T2 sequence (P24557 1-533): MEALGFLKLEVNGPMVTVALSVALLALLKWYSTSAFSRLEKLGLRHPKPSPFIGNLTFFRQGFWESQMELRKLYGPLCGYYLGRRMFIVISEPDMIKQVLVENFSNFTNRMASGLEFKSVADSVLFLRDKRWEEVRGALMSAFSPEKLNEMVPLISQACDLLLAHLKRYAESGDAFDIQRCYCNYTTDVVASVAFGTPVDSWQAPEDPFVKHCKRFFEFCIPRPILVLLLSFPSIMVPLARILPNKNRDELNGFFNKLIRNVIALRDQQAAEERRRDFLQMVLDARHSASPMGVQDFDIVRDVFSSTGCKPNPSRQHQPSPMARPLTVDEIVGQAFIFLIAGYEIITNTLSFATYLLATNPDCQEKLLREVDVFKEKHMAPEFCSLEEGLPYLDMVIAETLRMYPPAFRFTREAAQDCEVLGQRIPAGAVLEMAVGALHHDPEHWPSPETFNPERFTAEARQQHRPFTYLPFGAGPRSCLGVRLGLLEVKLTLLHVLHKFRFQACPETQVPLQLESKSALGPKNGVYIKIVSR
Protocol: The compounds were tested for thromboxane synthase inhibition essentially as described by Borsch-Haubold A G, Pasquet S, Watson S P. (1998) Direct inhibition of cyclooxygenase-1 and -2 by the kinase inhibitors SB 203580 and PD 98059. […] 1. Imidazole derivatives. J Med. Chem. (10):1139-48 according to the following:
Pre-incubation time, temp: 15 minutes at 25° C. Incubation time, temp: 3 minutes at 25° C.
Incubation Buffer: 10 mM Tris-HCl, pH 7.4
Quantification Method: EIA quantification of TxB2

[5] = biological target: T3, Thromboxane receptor (TP) (Homo sapiens, UniProt P21731); assay: TP receptor radioligand binding ([3H] SQ-29548); details: Human recombinant HEK-293 cells
T3 construct: expressed in transfected cells; host or cells: HEK-293
T3 sequence (P21731 1-343): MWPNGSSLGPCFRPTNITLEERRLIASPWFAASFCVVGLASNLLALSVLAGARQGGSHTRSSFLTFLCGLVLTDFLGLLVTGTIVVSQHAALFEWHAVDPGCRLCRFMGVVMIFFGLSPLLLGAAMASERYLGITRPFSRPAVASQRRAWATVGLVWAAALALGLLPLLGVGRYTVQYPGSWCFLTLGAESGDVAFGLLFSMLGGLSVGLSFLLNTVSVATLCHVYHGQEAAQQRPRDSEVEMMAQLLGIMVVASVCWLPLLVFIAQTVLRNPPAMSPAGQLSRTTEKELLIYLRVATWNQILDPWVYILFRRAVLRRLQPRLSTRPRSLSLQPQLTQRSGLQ
Protocol: The compounds were tested on radioligand binding assays for thromboxane receptor binding essentially as described by Hedberg et al. (1988) J. Pharmacol. Exp. Ther. 245:786-792 and Saussy et al. (1986) J. Biol. Chem. 261: 3025-3029 according to the following:
TP Receptor Radioligand Binding Studies:
Human recombinant HEK-293 cells,
Incubation Time, Temp: 30 minutes at 25° C.
Incubation Buffer: 50 mM Tris-HCl, pH 7.4, 154 mM NaCl
Non-Specific Ligand: 1 μM SQ-29548
The data were transformed to semi-log and then analysed using non-linear regression to a four-parameter dose-response curve Y=Bottom+(Top−Bottom)/(1+10̂((LogEC50−X)*HillSlope)) using the log(agonist) vs. response—Variable slope function of GraphPad Prism software (http://graphpad.com/help/prism5/prism5help.html?usitignonlinear_regression_step_by_s.htm).

[6] = tested on: New Zealand Rabbit platelet rich plasma; assay: TP receptor platelet aggregation, rabbit (U-46619-induced); format: cell-based
Protocol: Thrombosis Research 33:277-288.
TP Receptor Platelet Aggregation—Rabbit:
New Zealand Rabbit (2.75±0.25 kg) platelet rich plasma
Assay: Inhibition of 1.5 μM U-46619-induced platelet aggregation Incubation Time, Temp: 5 minutes at 37° C. Incubation Buffer Trisodium Citrate (0.13 M)-treated platelet rich plasma
Time of Assessment: 5 minutes
Quantification Method Optical Density Change

[7] = 14-day BID, enoic acid 53 mg/kg, rosiglitazone 5 mg/kg, Compounds 3 and 13 dose not stated
[8] = Oryctolagus cuniculus, Platelet, 1.5 μM U-46619-induced
[9] = 5 mg/kg BID oral gavage, Day 12, mean ± S.E.M.
[10] = 5 mg/kg BID oral gavage, Day 14, mean ± S.E.M.

Which “Body weight (in words)” value [1, 7] does the source give for `O=C(O)CC/C=C\C[C@@H]1COC(c2ccc(Nc3ccccc3)cc2)O[C@@H]1c1ccccc1O` (mixture of isomers) [Compound 3, (Z)-6-(4-(2-Hydroxyphenyl)-2-(4-(phenylamino)phenyl)-1,3-dioxan-5-yl)hex-4-enoic acid] here?
The value was “do not alter body weight”.

And the “FFA (in words)” value [1, 7]?
The value was “decreases the FFA”.

And the “HbA1c levels (in words)” value [1, 7]?
Its value is “decreased”.

What about the “Heart weight (in words)” value [1, 7] of the same compound?
The value was “no effect on heart weight”.

With `CC(=O)Oc1ccccc1C(=O)O` [Aspirin] as the compound, how does the Occlusion time ([2]; 200 mg/kg i.v.) read?
The Occlusion time was “no effect on the occlusion time”.

What about the Total blood flow ([2]; 200 mg/kg i.v.) of the same compound?
Its Total blood flow is “no significant effect on the total blood flow”.

For `COC(=O)[C@H](c1ccccc1Cl)N1CCc2sccc2C1` [Clopidogrel], which Total blood flow ([2]; 20 mg/kg oral gavage 6-7 hours prior) is on record?
The Total blood flow was “significantly improved total blood flow”.

Which results are given for `O=C(O)CC/C=C\C[C@@H]1COC(c2ccccc2Oc2ccc(F)cc2)O[C@@H]1c1ccccc1O` (stereo partly shown) [Compound 4]?
IC50 [3]: 2100 nM; inhibition at 5 µM ([4]; 5 μM): 39%; inhibition at 10 µM [5]: 100%; inhibition at 10 µM [6, 8]: 100%

For `O=C(O)CC/C=C\C[C@@H]1COC(c2ccccc2-c2ccccc2)O[C@@H]1c1ccccc1O` (stereo partly shown) [Compound 10], which IC50 [4] is on record?
Its IC50 is 840 nM.

And the “Thromboxane synthase Human platelet Inhibition (%) at 5 μM” value ([4]; 5 μM)?
The value was 76%.

And the inhibition at 5 µM ([4]; 5 μM)?
The inhibition at 5 µM was 75%.

What about the “Inhibition of thromboxane synthase (in words)” value ([4]; Table 2) of the same compound?
The value was “inhibitors of thromboxane synthase”.

And the Occlusion time ([2]; dose not given)?
The Occlusion time was “prolongs the occlusion time”.

What about the Total blood flow ([2]; dose not given) of the same compound?
Its Total blood flow is “improves total blood flow”.

What about the inhibition at 10 µM [5] of the same compound?
Its inhibition at 10 µM is 102%.

And the IC50 ([5]; 5 nM [3H] SQ-29548)?
Its IC50 is 11 nM.

And the Ki ([5]; 5 nM [3H] SQ-29548)?
Its Ki is 7.2 nM.

What about the inhibition at 30 µM ([6]; Oryctolagus cuniculus, Platelet, 30 μM, 1.5 μM U-46619-induced) of the same compound?
The inhibition at 30 µM was 100%.

And the “Inhibition of platelet aggregation (in words)” value ([6]; Table 2)?
Its value is “potent inhibitors of platelet aggregation”.

Which results are given for `COc1ccccc1C1OC(c2ccccc2Cl)OCC1C/C=C\CCC(=O)O` (stereo not shown) [Compound D, (Z)-6-(-2-(2-chlorophenyl)-4-(2-methoxyphenyl)-1,3-dioxan-5-yl)hex-4-enoic acid]?
IC50 [3]: 21000 nM; inhibition at 5 µM ([4]; 5 μM): 12%; inhibition at 10 µM [5]: 98%; inhibition at 10 µM [6, 8]: 33%

`COc1ccc(C(=O)NCc2cccnc2)cc1C(=O)NCc1cccnc1` [Picotamide] was tested. Which IC50 [4] did it give?
Its IC50 is 10100 nM.

What about the inhibition at 10 µM ([4]; 10 μM) of the same compound?
The inhibition at 10 µM was 53%.

And the inhibition at 100 µM ([6]; Oryctolagus cuniculus, Platelet, 100 μM, 1.5 μM U-46619-induced)?
The inhibition at 100 µM was 36%.

What does the source list for `CN(CCOc1ccc(CC2SC(=O)NC2=O)cc1)c1ccccn1` (stereo not shown) [Rosiglitazone]?
Body Weight [1, 9]: 49.5 ± 1.0 g; Food Intake [1, 9]: 4.5 ± 0.6 g/day; ALP [1, 10]: 26.0 ± 1.7 dU/L; ALT [1, 10]: 8.9 ± 0.9 dU/L; AST [1, 10]: 10.1 ± 0.9 dU/L; FFA [1, 10]: 1.3 ± 0.1 mM; Fructosamine [1, 10]: 0.35 ± 0.03 mM; HDL [1, 10]: 3.6 ± 0.2 mM; HbA1C [1, 10]: 7.8 ± 0.4 %; Heart weight [1, 10]: 226.2 ± 6.9 mg; Hematocrit [1, 10]: 40.3 ± 1.5%; Insulin [1, 10]: 17.9 ± 4.2 µg/L; Serum Glucose [1, 10]: 18.8 ± 2.2 mM; TG [1, 10]: 1.0 ± 0.2 mM; Total Cholesterol [1, 10]: 4.0 ± 0.4 mM; Body weight (in words) [1, 7]: increased; Heart weight (in words) [1, 7]: increased
